One block for each compound: values may come before it.
Test: solvent given as SMILES

Structure (SMILES): COc1ccc(-c2sc3c(-c4ccc(OC)cc4)c4n(c3c2-c2ccc(OC)cc2)[B-](F)(F)[N+]2=Cc3c(-c5ccc(OC)cc5)c5sc(-c6ccc(OC)cc6)c(-c6ccc(OC)cc6)c5n3[B-](F)(F)[N+]2=C4)cc1
emission maximum (in CC#N): 641 nm | emission maximum (in CCCCCC): 630 nm | emission maximum (in CN(C)C=O): 654 nm | emission maximum (in Cc1ccccc1): 649 nm | emission maximum (in ClCCl): 648 nm

Structure (SMILES): C(/C=C/c1cc2c3c(c1)CCCN3CCC2)=C\c1ccncc1
emission maximum (in C1COCCO1): 518 nm | emission maximum (in CC#N): 569 nm | emission maximum (in CCCCCCC): 442 nm | emission maximum (in CO): 583 nm

Structure (SMILES): CCN(CC)c1ccc(/C=N/C(C#N)=C(C#N)\N=C\c2ccc(N(CC)CC)cc2O)c(O)c1
emission maximum (in CC#N): 606 nm

Structure (SMILES): COc1cc(N(c2ccccc2)c2ccccc2)ccc1C=C(C#N)C#N
emission maximum (in C1COCCO1): 548 nm | emission maximum (in CC#N): 581 nm | emission maximum (in CC(C)=O): 587 nm | emission maximum (in CCOC(C)=O): 573 nm | emission maximum (in CN(C)C=O): 558 nm | emission maximum (in CO): 562 nm | emission maximum (in Cc1ccccc1): 525 nm | emission maximum (in ClC(Cl)Cl): 567 nm | emission maximum (in ClCCl): 590 nm

Structure (SMILES): O=C(O)c1ccc2ccc3cccc4ccc1c2c34
emission maximum (in C1CCOC1): 387 nm | emission maximum (in CC#N): 389 nm | emission maximum (in CCCCCC): 387 nm | emission maximum (in CCO): 380 nm | emission maximum (in CN(C)C=O): 388 nm | emission maximum (in CO): 380 nm | emission maximum (in Cc1ccccc1): 392 nm | emission maximum (in ClCCl): 394 nm

Structure (SMILES): CNc1ccc(/C=C/C(=O)OC)cc1
emission maximum (in O): 470 nm

Structure (SMILES): O=S(=O)(c1ccccc1)c1ccc(-n2c3ccccc3c3c2c2ccccc2n3-c2ccccc2)cc1
emission maximum (in Cc1ccccc1): 476 nm

Structure (SMILES): Cc1cc(O)c(C(=O)/C=C/c2ccccc2Cl)c(=O)o1
emission maximum (in CC#N): 481 nm | emission maximum (in ClCCl): 469 nm

Structure (SMILES): COc1ccc(C2=CC(c3ccccc3)=[N+]3C2=Nc2c(-c4ccc(OC)cc4)cc(-c4ccccc4)n2[B-]3(F)F)cc1
emission maximum (in Cc1ccccc1): 697 nm | emission maximum (in ClC(Cl)Cl): 695 nm

Structure (SMILES): Cc1cc(=O)oc2cc(O)ccc12
emission maximum (in CCO): 380 nm

Structure (SMILES): OC1(c2ccc(-c3cccs3)s2)CCCCC1
emission maximum (in C1CCOC1): 458 nm | emission maximum (in CC#N): 466 nm | emission maximum (in CCCCCC): 465 nm | emission maximum (in CCO): 465 nm | emission maximum (in OCCOCCO): 447 nm | emission maximum (in c1ccncc1): 475 nm

Structure (SMILES): Cc1ccccc1/C(C#N)=C/c1ccc(N(C)C)cc1
emission maximum (in C1CCOC1): 484 nm | emission maximum (in C1COCCO1): 476 nm | emission maximum (in CC#N): 427 nm | emission maximum (in CCCCCC): 431 nm | emission maximum (in CCCCCCC): 433 nm | emission maximum (in CCCCCO): 495 nm | emission maximum (in CCCCO): 502 nm | emission maximum (in CCCO): 505 nm | emission maximum (in CCO): 509 nm | emission maximum (in CCOC(C)=O): 490 nm | emission maximum (in CN(C)C=O): 456 nm | emission maximum (in CO): 450 nm | emission maximum (in CS(C)=O): 453 nm | emission maximum (in Cc1ccccc1): 464 nm | emission maximum (in ClC(Cl)Cl): 481 nm

Structure (SMILES): COC(=O)/C=C/c1sc(-c2ccc(N(C)C)s2)c(-c2ccsc2)c1N
emission maximum (in CC#N): 557 nm

Structure (SMILES): Cc1ccc(C2=C3C=CC(Cl)=[N+]3[B-](F)(F)n3c(Cl)ccc32)cc1
emission maximum (in C1CCCCC1): 525 nm | emission maximum (in C1CCOC1): 523 nm | emission maximum (in CC#N): 520 nm | emission maximum (in CCOC(C)=O): 521 nm | emission maximum (in CO): 519 nm | emission maximum (in Cc1ccccc1): 529 nm | emission maximum (in ClC(Cl)Cl): 526 nm

Structure (SMILES): O=C1c2ccccc2C(=O)C1C1C(=O)c2c3ccccc3cc3cc4ccccc4c1c23 (centres undefined)
emission maximum (in C1CCOC1): 569 nm | emission maximum (in CC#N): 591 nm | emission maximum (in CCCCCC): 538 nm | emission maximum (in Cc1ccccc1): 563 nm | emission maximum (in ClCCl): 583 nm

Structure (SMILES): CCn1c2ccccc2c2c3nsnc3c3c4ccccc4n(CC)c3c21
emission maximum (in CN(C)C=O): 500 nm | emission maximum (in Cc1ccccc1): 470 nm | emission maximum (in ClCCl): 497 nm

Structure (SMILES): Cc1cc(C)c(B(c2ccc(-c3nc4c5ccccc5c5ccccc5c4[nH]3)cc2)c2c(C)cc(C)cc2C)c(C)c1
emission maximum (in C1CCOC1): 456 nm | emission maximum (in CC(C)=O): 469 nm | emission maximum (in CS(C)=O): 484 nm | emission maximum (in Cc1ccccc1): 435 nm | emission maximum (in ClCCl): 454 nm

Structure (SMILES): CCCCCCCCCCCCn1cccc1/C=C/c1ccc(OCCCC)c2c(/C=C/c3cccn3CCCCCCCCCCCC)ccc(OCCCC)c12
emission maximum (in Cc1ccccc1): 490 nm

Structure (SMILES): CC(C)[Si](C#Cc1c2ccccc2c(C#Cc2c3ccccc3c(C#Cc3c4ccccc4c(C#Cc4c5ccccc5c(C#C[Si](C(C)C)(C(C)C)C(C)C)c5ccccc45)c4ccccc34)c3ccccc23)c2ccccc12)(C(C)C)C(C)C
emission maximum (in Cc1ccccc1): 609 nm

Structure (SMILES): Cc1c(C)n2c(COC(=O)c3ccccc3O)c(C)c(=O)n2c1=O
emission maximum (in CCO): 465 nm

Structure (SMILES): Cc1c(C)n2c(COC(=O)c3ccccc3I)c(C)c(=O)n2c1=O
emission maximum (in CCO): 461 nm

Structure (SMILES): CCCCN1/C(=C/C=C/C2=[N+](C)c3ccccc3C2(C)C)C(C)(C)c2cc(OC)ccc21
emission maximum (in CS(C)=O): 585 nm

Further lines, results first:

emission maximum (in ClCCl): 377 nm
Structure (SMILES): CCCCC(CC)COc1cc(OCC(CC)CCCC)c2c#cc3ccc4oc5ccc(c#cc6cc(c#cc7ccc8oc9ccc(c#cc1c2)cc9c8c7)c(C(CCCC)OCCC)cc6C(CCCC)OCCC)cc5c4c3 (centres undefined)

emission maximum (in C1CCCCC1): 429 nm
Structure (SMILES): c1cc2c3c(c1)OCCCCCCOc1cccc(c1-c1c4ccccc4c-3c3ccccc13)OCCCCCCO2

emission maximum (in ClC(Cl)Cl): 478 nm
Structure (SMILES): CCN(CC)c1ccc2cc(-c3cn4cc(OC)ccc4n3)c(=O)oc2c1

emission maximum (in ClC(Cl)Cl): 444 nm
Structure (SMILES): CC(C)(C)c1ccc2oc3nc4oc5ccc(-n6c7ccc(C(C)(C)C)cc7c7cc(C(C)(C)C)ccc76)cc5c4cc3c2c1

emission maximum (in ClCCl): 581 nm
Structure (SMILES): COc1cccc(C2=C3C=C(/C=C/C(=O)OC(C)(C)C)C=[N+]3[B-](F)(F)n3cccc32)c1

emission maximum (in CN(C)C=O): 534 nm
Structure (SMILES): O=C1c2ccc3c4ccc5c6c(ccc(c7ccc(c2c37)C(=O)N1c1ccc(Cl)cc1)c64)C(=O)N(c1ccc(Cl)cc1)C5=O

emission maximum (in ClCCl): 514 nm
Structure (SMILES): CCCCOc1c(C#N)cc2cc(C#N)c(OCCCC)c3c4c(OCCCC)c(C#N)cc5cc(C#N)c(OCCCC)c(c1c23)c54

emission maximum (in CC#N): 358 nm | emission maximum (in CO): 358 nm | emission maximum (in O): 360 nm
Structure (SMILES): CNCCCC1c2ccccc2C=Cc2ccccc21

emission maximum (in CC#N): 498 nm | emission maximum (in CO): 521 nm
Structure (SMILES): O=C1c2ccccc2-c2c(-c3ccccc3)c(-c3ccccc3)c(-c3ccccc3)c3cccc1c23

emission maximum (in CCO): 603 nm
Structure (SMILES): CN(C)c1ccc2c(C(=O)NCc3ccccc3)cc(C(=O)[O-])nc2c1

emission maximum (in O): 550 nm
Structure (SMILES): O=c1c2cc3[nH]c4c(S(=O)(=O)O)cc(S(=O)(=O)O)cc4c(=O)c3cc2[nH]c2c(S(=O)(=O)O)cc(S(=O)(=O)O)cc12

emission maximum (in O): 367 nm
Structure (SMILES): CC(C)(C)c1cccc2c(O)cccc12

emission maximum (in ClC(Cl)Cl): 374 nm
Structure (SMILES): N#Cc1c(C#N)c2cc(F)ccc2c2ccc(F)cc12

emission maximum (in ClC(Cl)Cl): 422 nm
Structure (SMILES): c1ccc2c(c1)-c1c(ccc3ccccc13)C21c2cc(-c3ccc4ccc5cccc6ccc3c4c56)ccc2-c2ccc(-c3ccc4ccc5cccc6ccc3c4c56)cc21

emission maximum (in CC#N): 473 nm | emission maximum (in CO): 490 nm | emission maximum (in ClCCl): 467 nm
Structure (SMILES): COc1cc(C=O)cc(-c2[nH]c(=O)n3c2-c2ccccc2C3=O)c1O

emission maximum (in C1CCOC1): 525 nm
Structure (SMILES): C[Si]1(c2ccccc2)C(c2ccc3c4ccccc4n(-c4ccccc4)c3c2)=C(c2ccccc2)C(c2ccccc2)=C1c1ccc2c3ccccc3n(-c3ccccc3)c2c1

emission maximum (in CS(C)=O): 633 nm
Structure (SMILES): O=C(O)COc1cccc(-c2c3nc(cc4ccc([nH]4)c(-c4cccc(OCC(=O)O)c4)c4nc(cc5ccc2[nH]5)C=C4)C=C3)c1

emission maximum (in ClCCl): 517 nm
Structure (SMILES): CCCCCCN1C(=O)c2cccc3c(-c4ccc(-c5cc(-c6ccccc6)nn5-c5ccccc5)s4)ccc(c23)C1=O

Reference: the Deep4Chem optical property database
